{"source": "patent US5985926A", "about": "“Method for inhibiting intracellular viral replication” (Cell Therapeutics, Inc., priority 1997, dated 1999)", "key": {"[1]": {"test_system": "HIV in chronically infected cell lines", "conditions": "cited from earlier work"}, "HIV infection": {"test_system": "HIV infection", "conditions": "cited from earlier work"}, "[2]": {"assay": "Viability of 293-EBNA cells (dye not stated)", "conditions": "human"}, "[3]": {"test_system": "HIV-LTR promoter (tat transactivation) in 293-EBNA cells", "assay": "AP reporter gene expression from HIV-LTR promoter with tat expression vector, 293-EBNA cells", "assay_type": "cell-based, HIV; human cells", "in_short": "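293-EBNA cells were transiently co-transfected with an HIV-LTR-driven secreted placental alkaline phosphatase reporter and a tat(1–72) expression plasmid. At 24 h, the medium was switched to serum-free AIM V before compounds were added at various concentrations. Secreted AP activity was read colorimetrically at 405 nm 19–24 h later.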"}, "[4]": {"assay": "Viability of 293-EBNA cells, Alamar Blue", "assay_type": "cell-based, human", "conditions": "human, 293-ebna cells; read-out: LD50 (CMV assay, FIG. 9)", "in_short": "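Viability read with Alamar Blue, a vital dye reduced by mitochondrial dehydrogenases to a soluble product. Signal quantified as the absorbance difference between A570 and A600.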"}, "[5]": {"test_system": "CMV promoter in 293-EBNA cells", "assay": "AP reporter gene expression from CMV promoter, 293-EBNA cells stably transfected with pCMV.AP", "assay_type": "cell-based, human cytomegalovirus; human cells", "conditions": "Homo sapiens, 293-EBNA; FIG. 8; read-out: concentration inhibiting AP activity by 50% (CMV assay)", "in_short": "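293-EBNA cells carrying episomal pCMV.AP, expressing secreted placental alkaline phosphatase from the CMV enhancer/promoter, treated with various compound concentrations. Reporter expression read as change in A405 of conditioned medium with substrate such as ortho-nitrophenol phosphate.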"}, "[6]": {"test_system": "LPAAT (lysophosphatidate acyl-CoA acyltransferase)", "assay": "LPAAT inhibition in vitro", "assay_type": "biochemical, mammalian", "conditions": "Lineweaver-Burke graph", "source_text": "The mammalian cell membrane associated enzyme lysophosphatidate acyl-CoA acyltransferase (LPAAT) catalyzes the transfer of acyl CoA from lysophosphatidic acid (lyso-PA) to phosphatidic acid (PA) species. Certain PA species function as lipid intermediates in cell activation and function directly as intracellular signaling molecules. PA is subsequently dephosphorylated to 1,2-sn diacylglycerol (DAG) via phosphatidate phosphohydrolase (PAH). The compounds that inhibit viral replication, gene expression and viral antigen release in infected cells also have decreased amounts of intracellular PA species that are formed in response to inflammatory cellular activation. […] Therefore, if PA derived from lyso-PA is an important intracellular signaling intermediate for TNF or IL-1 induced viral replication in virally-infectedcells, then inhibitors of PA formation will act to prevent progression of viral diseases by blocking cell signaling to stimulate virion formation."}, "[7]": {"test_system": "HIV-1 in U1 cells (constitutive expression)", "assay": "Constitutive HIV-1 p24 antigen expression in chronically infected U1 cells", "assay_type": "cell-based, HIV-1; human cells", "conditions": "U1 cells plated at high density; in words", "experimental": "(§1) Another assay examined the effect of compounds on chronically HIV-1 infected U1 cells. A relatively high density of U1 cells at 10^4 cells/well were incubated in the absence or presence of compounds for 4 days. HIV-1 p24 antigen expression in the culture media was measured by using a ELISA kit (Abbott). Alternatively, U1 cells were plated at a relatively low density of 2×10^3 cell/well plus or minus TNF at 20 pg/ml and plus or minus compounds. The expression of HIV-1 p24 antigen in culture media was measured by ELISA four days later.\n(§2) Stable cell lines 293tar, 293tat and 293tat2 were generated by transfections using conditions described in (Tate et al., FASEB J. 4:227-231, 1990) with the plasmid pHIV.AP alone or along with either pHIV.tat or pSV2tat72, respectively. The assay of HIV-1 p24 antigen expression in the chronically HIV-1-infected promonocytic line U1 after 4 days and in acutely infected peripheral blood lymphocytes (PBL) after 7 days were described (Peterson et al., J. Clin. Invest. 89:574-580, 1992, and Brighty et al., Proc Natl. Acad. Sci. USA 88:7802-7805, 1991).\n(§3) This example illustrates that CT2576 inhibited both constitutive and cytokine-induced HIV expression in a chronically-infected U1 cell line. A chronically HIV-1 infected human promonocyte cell line, U1 (Poli et al., J. Exp. Med. 172:151-158, 1990), was used as a model to see if the inhibitory effect of CT2576 on HIV-LTR driven reporter gene expression could be extended to block HIV replication per se in infected cells. TNF-α and IL-6 have been reported to upregulate the expression of HIV-1 in U1 cells (Poli et al., Proc Natl. Acad. Sci. USA 91:108-112, 1994). U1 cells were plated onto 24-well microtiter plates to study the dose-response effect of CT2576 on the constitutive (10^4 cells/well), TNF-α or IL-6 mediated (2×10^3 cells/well) expression of HIV-1. CT2576 was capable of inhibiting the constitutive, the TNF-α mediated, as well as the IL-6 mediated expression of HIV in U1 cells with an IC50 value of less than 1 μM (FIG. 17)."}, "[8]": {"test_system": "HIV-1 in U1 cells (TNF-α mediated expression)", "assay": "TNF-α-mediated HIV-1 p24 antigen expression in chronically infected U1 cells", "assay_type": "cell-based, HIV-1; human cells", "conditions": "U1 cells; in words", "experimental": "as §1, §2, §3"}, "[9]": {"test_system": "HIV in infected monocytic cells", "assay": "HIV replication, gene expression and p24 release in infected monocytic cells stimulated by TNF", "assay_type": "cell-based", "conditions": "TNF activation", "experimental": "as §1"}, "[10]": {"test_system": "HIV-1 strain JR-CSF in PBL", "assay": "HIV-1 p24 antigen expression in acutely infected peripheral blood lymphocytes (PBL)", "assay_type": "cell-based, HIV-1; human cells", "conditions": "Human immunodeficiency virus 1, Lymphocyte, clinical isolate", "experimental": "FIG. 17 illustrates a dose response curves of CT2576 on constitutive, TNF-α, and IL-6-mediated expression of HIV-1 in a chronically infected U1 cell line (left Y-axis) and of CT3537 on HIV expression in PBL acutely infected with the JR-CSF primary isolate (right Y-axis). U1 cells were incubated for four days after the addition of CT2576 with or without TNF-α (20 pg/ml) or IL-6 (1 ng/ml). PBL were inoculated with HIV at 10 ng virus/10^6 cells/well and incubated with various concentrations of CT3537 for 7 days. Each data point represents the average expression levels of HIV-1 p24-antigen in the cell supernatants measured by ELISA from triplicate samples with error bar indicating the SD.\nas §2, with “1991). […]” for “1991).”"}, "[11]": {"test_system": "HIV-LTR promoter / tat protein", "conditions": "through interaction with the tat protein; cited from earlier work"}}, "note": "Entries after “also recorded” stand apart in the source; their conditions may differ.", "data": [{"compound": "Cc1cn([C@H]2C[C@H](N=[N+]=[N-])[C@@H](CO)O2)c(=O)[nH]c1=O", "note": "[AZT]", "values": [{"measurement": "activity on HIV replication in chronically infected cell lines", "setting": "[1]", "result": "not to be active"}, {"measurement": "progression of AIDS disease", "setting": "HIV infection; asymptomatic patients, early stage HIV infection", "result": "no delay in the progression of AIDS disease"}, {"measurement": "CD4+ T cell number", "setting": "HIV infection; treatment versus placebo group", "result": "consistently higher number of CD4^+ T cells"}]}, {"compound": "CCCCCCCCNCC(O)CCCCCCCCCn1c(=O)c2[nH]cnc2n(C)c1=O", "note": "(stereo not shown) [CT1416, N-(11-octylamino-10-hydroxyundecyl)-3-methylxanthine]", "values": [{"measurement": "CC50", "setting": "[2]", "result": "~5", "unit": "µM"}, {"measurement": "IC50", "setting": "[3]; Homo sapiens, 293-EBNA, read-out: concentration inhibiting AP expression by 50%", "result": "1 to 4", "unit": "µM"}, {"measurement": "CC50", "setting": "[4]", "result": "~5", "unit": "µM"}, {"measurement": "effect on cell viability / cytotoxicity", "setting": "293-EBNA cells", "result": "some cytotoxicity"}, {"measurement": "IC50", "setting": "[5]", "result": "2 to 6", "unit": "µM"}]}, {"compound": "C[C@@H](O)CCCCn1c(=O)c2c(ncn2C)n(C)c1=O", "note": "[CT1501R, R-1-(5-hydroxyhexyl)-3,7-dimethylxanthine]", "values": [{"measurement": "mode of LPAAT inhibition", "setting": "[6]", "result": "competitive inhibition"}, {"measurement": "inhibition of AP expression (HIV-LTR promoter)", "setting": "[3]; 293-EBNA cells, HIV promoter, in words", "result": "No appreciable inhibition of AP expression; also recorded: did not affect AP activity"}, {"measurement": "suppression of constitutive HIV-1 expression (p24)", "setting": "[7]", "result": "suppressed constitutive HIV-1 expression"}, {"measurement": "effect on cell viability / cytotoxicity", "setting": "293-EBNA cells", "result": "did not affect AP activity and cell viability significantly"}, {"measurement": "suppression of TNFα-mediated HIV-1 expression (p24)", "setting": "[8]", "result": "suppressed HIV-1 expression"}, {"measurement": "antiviral activity in TNF-stimulated infected monocytic cells", "setting": "[9]", "result": "inhibiting HIV replication, gene expression and p24 release"}]}, {"compound": "CCCCCCCCN(CC(CCCCCCCCCn1c(=O)c2c(ncn2C)n(C)c1=O)OC(C)=O)C(C)=O", "note": "(stereo not shown) [CT3537, 1-[11-(N-octylacetamido)-10-acetoxyundecyl]-3,7-dimethylxanthine]", "values": [{"measurement": "IC50", "setting": "[10]", "result": "< 1", "unit": "µM"}]}, {"compound": "CNC1=Nc2ccc(Cl)cc2C(c2ccc[nH]2)=NC1", "note": "[Ro 24-7429]", "values": [{"measurement": "block of HIV-LTR promoter transcription", "setting": "[11]", "result": "blocks HIV-LTR promoter transcription"}]}]}
